In patent US8273700B2, “Methods and compositions for treatment of cystic fibrosis” (The Johns Hopkins University, priority 2005, dated 2012):
“Also recorded” adds a separate entry of the source. Each block holds one molecule with its values, some of them ahead of it. Where a SMILES comes first, the peptide text is derived from it. [ ]: non-standard residue; d: D form. Nle = CCCC[C@H](N)C(=O)O

Legend:
IL8 = IL8 cytokine ELISA in IL1-β induced IB3-1 cells; assay type: cell-based, human; details: for IL8 cytokine levels: IL1-β 1 ng/ml 12 hrs
[1] = tested on: streptococcal cell wall-induced polyarthritis; details: rat; cited from earlier work
proteasome = assay: Protease activity in IB3-1 cells; assay type: cell-based, human; details: 10 μM, 6 hrs treatment
ΔF508-CFTR [2] = assay: Pulse-chase metabolic labeling and CFTR immunoprecipitation in IB3-1 cells; assay type: cell-based, human; details: metabolic labeling t=2 hrs, transfection 48 hrs or 10 μM bortezomib 6 hrs (FIG. 2D)
Procedure: (§1) The IB3-1 (ΔF508/W1282X; low level expression of ΔF508-CFTR and no W1282X protein), CFTE (ΔF508-homozygous) and S9 (IB3-1 corrected by AAV-CFTR) cells were maintained in LHC-8 media containing 100 units/ml penicillin, 100 μg/ml streptomycin, 0.25 μg/ml amphotericin B and 10% fetal bovine serum. LHC-8 media was purchased from Biosource and other components were purchased from Gibco (Invitrogen, Carlsbad, Calif.). The cells were plated on 6-well plates and transfected with 4 μg plasmid DNA each of ΔF508/wt-CFTR-GFP and co-transfected with VCP shRNA (ΔVCP), VCPQQ construct (deficient in two AAA ATPase domains, D1 & D2), gp78 siRNA (Δgp78) or gp78ΔC (deficient in VCP binding domain) constructs using Lipofectamine 2000 (Invitrogen, Carlsbad, Calif.) as described by the manufacturer. After 48 hrs of transfection, cells were rinsed three times and starved for 1 hr in methionine- and cysteine-free Dulbecco's modified Eagle's medium (DMEM). Cells were pulse labeled with 250 μci/ml [^35S]-methionine and cysteine (ICN Biomedical, Irvine, Calif.) for 30 min and than chased in DMEM containing 10 mM methionine and 4 mM cysteine for indicated times.
(§2) Cells were lysed directly on plates using M-PER (Pierce Biotech. Inc., Rockford, Ill.) protein lysis buffer containing protease inhibitor cocktail (Roche) after three washes with ice cold PBS. […] Proteins were detected using respective primary antibodies. […]

NFκB = assay: NoShift NFκB binding assay on nuclear extracts of IB3-1 cells; assay type: cell-based, human; details: for NFκB binding (absorbance at 450 nm): IL1-β 1 ng/ml 12 hrs, transfection 24 hrs or 5 μM bortezomib / 5 μM MLN-273 6 hrs (FIG. 6C)
Procedure: IB3-1 cells transfected (24 hrs) with ΔVCP, ΔF508 or ΔCHOP were treated with 5 μM bortezomib (6 hrs)/5 μM MLN-273 (6 hrs)/5 mM 4PBA (24 hrs). Cells were induced with IL-β(1 ng/ml) for 12 hrs. After 24 hrs of transfection, nuclear extracts (11) were collected using NucBuster protein extraction kit (Novagen, San Diego, Calif.) and the shift in bound NFκB was measured using NoShift NFκB Binding Assay kit (Novagen, San Diego, Calif.) as specified by the manufacturer. The signal from nuclear extracts was compared with the negative control (minus extract). The specificity of protein binding was established using NFκB specific and mutant competitors. The plates were read at 450 nm on 96-well microplate reader (Molecular Devices) using SOFT-MAX-Pro software. The absorbance readings were used to determine the levels of bound NFκB. The data represents mean of three independent experiments±SD.

ΔF508-CFTR [3] = assay: Pulse-chase metabolic labeling and CFTR immunoprecipitation in CFTE cells; assay type: cell-based, human; details: CFTE cells transfected with ΔF508-CFTR, 10 μM bortezomib 6 hrs, 42 hrs post-transfection (FIG. 2C)
Procedure: as §1, §2

NF-κB = details: mammalian cells; cited from earlier work
[4] = tested on: E-selectin, ICAM-1, and VCAM-1; details: primary human umbilical vein endothelial cells; cited from earlier work
wt-CFTR = assay: Pulse-chase metabolic labeling and CFTR immunoprecipitation in S9 cells; assay type: cell-based, human; details: S9 cells transfected with wt-CFTR; ΔVCP 48 hrs or 10 μM bortezomib 6 hrs (FIG. 2B)
Procedure: as §1, §2

gp78 = assay: Immunoblotting for gp78 in IB3-1 cells; assay type: cell-based, human; details: IB3-1 cells treated with bortezomib 6 hrs (FIG. 3A)
Procedure: (§3) Cells were lysed directly on plates using M-PER (Pierce Biotech. Inc., Rockford, Ill.) protein lysis buffer containing protease inhibitor cocktail (Roche) after three washes with ice cold PBS. CF bronchial brushings were transferred to lysis buffer. For immunoprecipitation, 500 μg/ml (cell culture)/50 μg/ml (bronchial brushings) total protein extracts were incubated with 50 μl of protein A/G agarose beads (Santa Cruz Biotechnology Inc., Santa Cruz, Calif.) for 3 hours at 4° C. After preclearing, 5 μg of respective primary antibody or pre-immune sera (negative control) was added to each tube. After 1 hour, protein A/G agarose beads (50 μL) were added to each tube and tubes were incubated overnight at 4° C. Beads were washed once with lysis buffer (20 mM Tris-HCl [pH 7.6], 150 mM NaCl, 0.5% Triton X-100 and 10 μM phenylmethylsulfonyl fluoride [PMSF]) followed with two washes with phosphate buffer saline (PBS). The beads were suspended in Laemmli's sample buffer (30 μL) containing β-mercaptoethanol, vortexed for 1 minute, resolved by 4-10% SDS-PAGE and transferred to a 0.4-μm pore size nitrocellulose membrane. Proteins were detected using respective primary antibodies. For pulse chase experiments, CFTR immunoprecipitate was eluted with sample buffer and separated on a 4-8% SDS-PAGE, dried for 2 hours and processed for autoradiography.

CFTR = molecular target: T1, CFTR (Homo sapiens, UniProt P13569, DEL508-508); assay: MQAE assay of CFTR-mediated chloride transport in IB3-1 cells; assay type: cell-based; details: for MQAE fluorescence (Cl- channel activity): 10 μM forskolin or genistein, 5 μM CFTR inhibitor 172 or 14-22 amide (FIG. 5A)
T1 construct: expressed in transfected cells; host or cells: IB3-1 (ΔF508/W1282X) and CFTE (ΔF508 homozygous) cells
T1 sequence (P13569 with tags, fused parts or gaps DEL508-508): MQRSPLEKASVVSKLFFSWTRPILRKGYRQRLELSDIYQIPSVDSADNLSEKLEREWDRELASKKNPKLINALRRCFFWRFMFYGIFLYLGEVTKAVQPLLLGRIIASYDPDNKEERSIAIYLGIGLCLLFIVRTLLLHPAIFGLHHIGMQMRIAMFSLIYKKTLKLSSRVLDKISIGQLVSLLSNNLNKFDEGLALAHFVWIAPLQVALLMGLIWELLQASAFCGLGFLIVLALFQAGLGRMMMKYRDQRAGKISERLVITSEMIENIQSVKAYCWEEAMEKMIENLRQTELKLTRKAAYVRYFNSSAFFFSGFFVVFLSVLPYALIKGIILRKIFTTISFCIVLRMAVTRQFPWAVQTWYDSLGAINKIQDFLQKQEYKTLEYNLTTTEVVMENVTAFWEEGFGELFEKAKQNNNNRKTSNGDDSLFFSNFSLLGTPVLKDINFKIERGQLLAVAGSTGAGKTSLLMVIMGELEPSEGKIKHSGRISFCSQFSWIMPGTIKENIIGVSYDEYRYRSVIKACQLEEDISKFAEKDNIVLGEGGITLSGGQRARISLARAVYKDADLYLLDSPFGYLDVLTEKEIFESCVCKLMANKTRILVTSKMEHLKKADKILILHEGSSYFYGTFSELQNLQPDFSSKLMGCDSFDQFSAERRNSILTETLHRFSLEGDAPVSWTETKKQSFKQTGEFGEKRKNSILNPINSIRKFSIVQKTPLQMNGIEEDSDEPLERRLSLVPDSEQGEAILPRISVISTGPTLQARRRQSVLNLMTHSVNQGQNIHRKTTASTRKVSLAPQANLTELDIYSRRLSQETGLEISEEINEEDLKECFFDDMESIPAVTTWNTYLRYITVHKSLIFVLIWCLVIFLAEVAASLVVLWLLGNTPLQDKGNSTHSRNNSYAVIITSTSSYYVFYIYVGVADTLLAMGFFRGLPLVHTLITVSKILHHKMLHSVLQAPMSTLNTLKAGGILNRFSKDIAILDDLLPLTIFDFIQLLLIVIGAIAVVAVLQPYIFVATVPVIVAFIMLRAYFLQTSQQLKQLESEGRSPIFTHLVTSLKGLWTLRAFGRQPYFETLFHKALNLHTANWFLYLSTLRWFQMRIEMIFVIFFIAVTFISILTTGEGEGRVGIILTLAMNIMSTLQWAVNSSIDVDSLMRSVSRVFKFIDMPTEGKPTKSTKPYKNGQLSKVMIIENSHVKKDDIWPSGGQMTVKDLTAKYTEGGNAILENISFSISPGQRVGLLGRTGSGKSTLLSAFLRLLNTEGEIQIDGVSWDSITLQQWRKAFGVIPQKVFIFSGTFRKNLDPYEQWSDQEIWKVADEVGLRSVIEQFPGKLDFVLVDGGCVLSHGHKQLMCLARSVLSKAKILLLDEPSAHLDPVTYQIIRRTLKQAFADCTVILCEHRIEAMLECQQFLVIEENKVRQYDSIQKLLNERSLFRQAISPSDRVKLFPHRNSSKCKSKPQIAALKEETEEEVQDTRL
Procedure: CFTR-mediated chloride transport activity in IB3-1 cells transfected with ΔVCP, VCPQQ, Δgp78 and gp78ΔC constructs, and treated with bortezomib (1, 5 or 10 μM) was assayed by the halide-sensitive dye, MQAE. Fluorescence of MQAE is quenched by halides. Cells were grown on glass coverslips in DMEM containing 10% FBS. Cells were loaded with the dye by hypotonic shock at 37° C. for 40 min in Opti-MEM/water (1:1) containing 10 mM MQAE, washed and then mounted in a perfusion chamber for fluorescence measurements. Fluorescence was measured using a Zeiss inverted microscope coupled to a CCD camera Excitation and emission wavelengths were 350 nm and 460 nm, respectively. The stage and objective lenses were maintained at 37° C. The media was kept flowing through the perfusion chamber at 1 ml/min using a peristaltic pump. Both 10 μM forskolin and 10 μM genistein were used to induce Cl^− transport in IB3-1 cells. CFTR was inhibited with either 5 μM CFTR inhibitor 172 (12) or 14-22 amide (Calbiochem, San Diego, Calif.) to reduced cAMP mediated phosphorylation. Chloride efflux was calculated using following equations: F0/FCl=1+[Cl-]i*Ksv (1) F0=F20*(1+0.02*Ksv) (2) (dCl/dt)=F0/[Ksv*(FCl)2]*dFCl/dt (3)

VCP = assay: Immunoblotting for VCP in IB3-1 cells; assay type: cell-based, human; details: IB3-1 cells treated with bortezomib 6 hrs (FIG. 3A)
Procedure: as §3

Hsp40 = assay: Immunoblotting for Hsp40 in IB3-1 cells; assay type: cell-based, human; details: IB3-1 cells treated with bortezomib 6 hrs (FIG. 3A)
Procedure: as §3

Hsp70 = assay: Immunoblotting for Hsp70 in IB3-1 cells; assay type: cell-based, human; details: IB3-1 cells treated with bortezomib 6 hrs (FIG. 3A)
Procedure: as §3

IB3-1 cells = assay: Microscopic examination of cell morphology; assay type: cell-based, human; details: 10 μM bortezomib 6 hrs, phase microscopy (data not shown)
ΔF508-CFTR [5] = tested on: ΔF508-CFTR; parameters: dose or concentration left out as unconfirmed; details: cited from earlier work
[6] = transfection 24 hrs or 5 μM bortezomib / 5 μM MLN-273 6 hrs (FIG. 6B)

Structure (SMILES): CC(C)C[C@H](NC(=O)[C@H](Cc1ccccc1)NC(=O)c1cnccn1)B(O)O [bortezomib, pyrazylcarbonyl-Phe-Leu-boronate]
IL8 cytokine levels (IL8; [6]): significantly inhibited
IL8 cytokine levels (IL8; transfection 48 hrs or 5 μM bortezomib 6 hrs (FIG. 6A)): significantly downregulated; also recorded: significantly inhibited
combined effect of ΔCHOP and bortezomib on IL8 down regulation (IL8; ΔCHOP 24 hrs plus 5 μM bortezomib 6 hrs, IL1-β 1 ng/ml (FIG. 6B)): synergistic effect
T cell-dependent chronic phase of the inflammatory response [1]: markedly inhibited
neutrophil-predominant acute phase of the inflammatory response [1]: attenuated
protease activity (proteasome): partial inhibition
level of immature B form of ΔF508-CFTR (ΔF508-CFTR [2]): partially rescues
rescue of ΔF508-CFTR from ERAD (ΔF508-CFTR [2]): partially rescued ΔF508-CFTR
NFκB binding (absorbance at 450 nm) (NFκB): significantly inhibited
combined effect of ΔCHOP and bortezomib on NFκB binding (NFκB; ΔCHOP 24 hrs plus 5 μM bortezomib 6 hrs, IL1-β 1 ng/ml (FIG. 6C)): synergistic effect
ΔF508-CFTR accumulation and rescue (ΔF508-CFTR [3]): significant increase in the accumulation and stabilization of the B form; also recorded: rescues the ΔF508-CFTR mature (C-form) by 2 hrs
NF-κB activation and NF-κB-dependent gene expression (NF-κB): inhibit NF-κB activation and NF-κB-dependent gene expression
TNF-α-induced gene expression of cell-surface adhesion molecules [4]: inhibits
wt-CFTR maturation and stability, band B to band C (wt-CFTR): substantial amounts of mature band C; also recorded: stabilizes the wild type-CFTR mature (C-form)
gp78 protein level (gp78): no change
genistein mediated chloride efflux (CFTR; IB3-1 cells transfected with ΔF508-CFTR, bortezomib 5 or 10 μM for 6 hrs, bars in mM/s (FIG. 5C)): augmented chloride efflux; also recorded: significantly induced
combined effect with genistein on rescue of functional ΔF508-CFTR (CFTR; IB3-1 cells, with genistein (FIG. 5C)): synergistic effect
VCP protein level (VCP): inhibition
VCP protein level (VCP; listed as Bortezomib): inhibited
Hsp40 protein level (Hsp40): no change
Hsp70 protein level (Hsp70): Induction
Hsp70 protein level (Hsp70; listed as Bortezomib): induced
morphology of treated vs untreated monolayers (IB3-1 cells): no difference in morphology

Structure (SMILES): CC(C)C[C@H](NC(=O)[C@H](Cc1cccc2ccccc12)NC(=O)N1CCOCC1)B(O)O [MLN273]
IL8 cytokine levels (IL8; [6]): significantly inhibited
NFκB binding (absorbance at 450 nm) (NFκB): significantly inhibited

MQAE fluorescence (Cl- channel activity) (CFTR; IB3-1 cells): significant change
MQAE fluorescence (Cl- channel activity) (CFTR; IB3-1 cells, listed as Genistein): significant increase
Structure (SMILES): O=c1c(-c2ccc(O)cc2)coc2cc(O)cc(O)c12 [genistein]

Structure (SMILES): CCCC[C@@H](C=O)NC(=O)[C@H](CC(C)C)NC(=O)[C@H](CC(C)C)NC(C)=O [ALLN, N-acetyl-leucylleucyl-Norleucinal] (Ac-Leu-Leu-[Nle]-aldehyde)
ΔF508-CFTR degradation (ΔF508-CFTR [5]): blocks ΔF508-CFTR it degradation

Structure (SMILES): O=C(O)c1ccc(/C=C2\SC(=S)N(c3cccc(C(F)(F)F)c3)C2=O)cc1 [172 inhibitor]
MQAE fluorescence (Cl- channel activity) (CFTR; IB3-1 cells): block the cAMP mediated cystic fibrosis transmembrane receptor (CFTR) activity
